The values below are quoted from earlier work in patent US20260297044A1, “INHIBITORS OF SPINSTER HOMOLOG 2 (SPNS2) FOR USE IN THERAPY” (University of Virginia Patent Foundation, priority 2023, published 2026).

This data set concerns Spns2. The note with it: two models of kidney fibrosis, mice.

As to `CCCCCCCCCCc1ccc(-c2noc(CCCN)n2)cc1` [SLF1081851], the fibrosis result is “significantly less fibrosis” and the “function of the injured kidney” value is recorded as “improved function of the injured kidney”.
